# In patent US9193728B2, “Fused tetracyclic pyrido [4,3-B] indole and pyrido [3,4-B] indole derivatives and methods of use” (Medivation Technologies, Inc., priority 2010, dated 2015):
# How the values were obtained:
# [1] = target: T1, human recombinant dopamine D2L receptor (Homo sapiens, UniProt P14416); experiment: Dopamine D2L radioligand binding ([3H]Spiperone); details: compound at 1 μM; read-out: Dopamine (1 μM) D2L, percentage inhibition of ligand binding
# T1 construct: expressed in transfected cells; host or cells: CHO
# T1 sequence (P14416 whole entry): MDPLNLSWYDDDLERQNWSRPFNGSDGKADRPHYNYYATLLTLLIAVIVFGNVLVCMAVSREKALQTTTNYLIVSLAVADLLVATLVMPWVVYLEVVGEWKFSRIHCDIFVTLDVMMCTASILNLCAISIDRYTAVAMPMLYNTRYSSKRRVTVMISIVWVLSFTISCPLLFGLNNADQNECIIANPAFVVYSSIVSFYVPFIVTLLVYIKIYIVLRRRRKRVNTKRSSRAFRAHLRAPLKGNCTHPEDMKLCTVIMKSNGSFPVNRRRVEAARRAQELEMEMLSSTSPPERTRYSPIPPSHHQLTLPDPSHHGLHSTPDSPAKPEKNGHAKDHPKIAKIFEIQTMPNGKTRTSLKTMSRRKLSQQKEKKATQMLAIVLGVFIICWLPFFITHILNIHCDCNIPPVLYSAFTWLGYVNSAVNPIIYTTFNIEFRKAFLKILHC
# Procedure: To evaluate in radioligand binding assays the activity of compounds of the invention, human recombinant dopamine D2L receptor expressed in Chinese hamster ovary (CHO) cells (Grandy, D. et al, Proc. Natl. Acad. Sci. USA. 86:9762, 1989; Hayes, G. et al, Mol. Endocrinol. 6:920, 1992) in a modified Tris-HCl buffer (50 mM Tris-HCl, pH 7.4, 1.4 mM Ascorbic Acid, 0.001% BSA, 150 mM NaCl) was used. Compounds of the invention were incubated with 0.16 nM [^3H]Spiperone for 120 min. at 25° C. Non-specific binding was estimated in the presence of 10 μM Haloperidol. Receptor proteins were filtered and washed, the filters were then counted to determine [^3H]Spiperone specifically bound. Compounds were screened at 1 μM or lower, using 1% DMSO as vehicle. Biochemical assay results are presented as the percent inhibition of specific binding in Table 3.
# [2] = target: T2, human recombinant histamine H2 receptor (Homo sapiens, UniProt P25021); experiment: Histamine H2 radioligand binding ([125I]Aminopotentidine); details: compound at 1 μM; 0.1 nM [125I]Aminopotentidine; read-out: Histamine Binding (1 μM) H2, percentage inhibition
# T2 construct: expressed in transfected cells; host or cells: CHO-K1
# T2 sequence (P25021 whole entry): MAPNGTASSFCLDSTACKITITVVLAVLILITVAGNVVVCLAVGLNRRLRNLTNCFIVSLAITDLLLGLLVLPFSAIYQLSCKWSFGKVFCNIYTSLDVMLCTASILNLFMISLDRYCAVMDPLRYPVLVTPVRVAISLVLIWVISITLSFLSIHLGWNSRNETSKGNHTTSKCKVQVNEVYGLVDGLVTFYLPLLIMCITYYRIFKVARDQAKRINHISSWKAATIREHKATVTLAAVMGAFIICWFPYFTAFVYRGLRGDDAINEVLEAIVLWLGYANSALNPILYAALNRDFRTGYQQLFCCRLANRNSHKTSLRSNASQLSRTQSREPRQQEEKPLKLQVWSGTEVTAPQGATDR
# Procedure: To evaluate in radioligand binding assays the activity of compounds of the invention, human recombinant histamine H2 receptor expressed in Chinese hamster ovary (CHO) K1 cells (Ruat, M., Proc. Natl. Acad. Sci. USA. 87(5):1658, 1990) in a 50 mM Phosphate buffer, pH 7.4 was used. Compounds of the invention were incubated with 0.1 nM [^125I]Aminopotentidine for 120 min. at 25° C. Non-specific binding was estimated in the presence of 3 μM Tiotidine. Receptor proteins were filtered and washed, the filters were then counted to determine [^125I]Aminopotentidine specifically bound. Compounds were screened at 1 μM or lower, using 1% DMSO as vehicle. Biochemical assay results are presented as the percent inhibition of specific binding in Table 2.
# [3] = target: T3, human recombinant serotonin (5-Hydroxytryptamine) 5-HT2C receptor (Homo sapiens, UniProt P28335); experiment: Serotonin 5-HT2C radioligand binding ([3H]Mesulergine); details: for inhibition at 1 µM: compound at 1 μM, read-out: Serotonin (1 μM) 5-HT2C, percentage inhibition of ligand binding
# T3 construct: expressed in transfected cells; host or cells: CHO-K1
# T3 sequence (P28335 33-458): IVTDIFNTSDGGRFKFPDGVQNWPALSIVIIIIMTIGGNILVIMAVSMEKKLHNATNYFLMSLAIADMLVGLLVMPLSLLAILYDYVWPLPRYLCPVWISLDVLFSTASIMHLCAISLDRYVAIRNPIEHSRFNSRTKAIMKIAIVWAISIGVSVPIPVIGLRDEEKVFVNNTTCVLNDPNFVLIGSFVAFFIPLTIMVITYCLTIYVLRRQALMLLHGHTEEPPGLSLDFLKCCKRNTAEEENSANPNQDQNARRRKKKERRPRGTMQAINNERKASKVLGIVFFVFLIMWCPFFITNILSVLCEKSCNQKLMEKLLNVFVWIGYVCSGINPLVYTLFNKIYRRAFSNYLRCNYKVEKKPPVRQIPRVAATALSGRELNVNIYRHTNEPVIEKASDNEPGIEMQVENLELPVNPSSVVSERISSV
# Procedure: To evaluate in radioligand binding assays the activity of compounds of the invention, human recombinant serotonin (5-Hydroxytryptamine) 5-HT2C receptor expressed in Chinese hamster ovary (CHO)-K1 cells (Wolf, W. et al, J. Neurochem. 69:1449, 1997) in a modified Tris-HCl buffer (50 mM Tris-HCl, pH 7.4, 0.1% Ascorbic Acid, 10 μM Pargyline) was used. Compounds of the invention were incubated with 1 nM [^3H]Mesulergine for 60 min. at 25° C. Non-specific binding was estimated in the presence of 1 μM Mianserin. Receptor proteins were filtered and washed, the filters were then counted to determine [^3H]Mesulergine specifically bound. Compounds were screened at 1 μM or lower, using 1% DMSO as vehicle. Biochemical assay results are presented as the percent inhibition of specific binding in Table 4.
# [4] = target: T4, human recombinant serotonin (5-Hydroxytryptamine) 5-HT6 receptor (Homo sapiens, UniProt P50406); experiment: Serotonin 5-HT6 radioligand binding ([3H]LSD); details: for inhibition at 1 µM: compound at 1 μM, read-out: Serotonin (1 μM) 5-HT6, percentage inhibition of ligand binding
# T4 construct: expressed in transfected cells; host or cells: HeLa
# T4 sequence (P50406 whole entry): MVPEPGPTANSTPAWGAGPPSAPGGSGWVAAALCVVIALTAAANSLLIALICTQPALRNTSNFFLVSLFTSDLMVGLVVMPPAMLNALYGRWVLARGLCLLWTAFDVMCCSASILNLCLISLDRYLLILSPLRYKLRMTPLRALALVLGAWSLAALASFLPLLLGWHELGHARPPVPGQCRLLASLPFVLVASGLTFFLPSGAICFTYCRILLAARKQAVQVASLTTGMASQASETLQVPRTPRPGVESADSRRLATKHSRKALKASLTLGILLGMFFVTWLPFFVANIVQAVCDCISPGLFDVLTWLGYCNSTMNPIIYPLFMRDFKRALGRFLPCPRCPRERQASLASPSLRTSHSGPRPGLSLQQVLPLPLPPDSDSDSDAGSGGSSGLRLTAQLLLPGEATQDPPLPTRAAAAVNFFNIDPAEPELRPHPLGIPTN
# Procedure: To evaluate in radioligand binding assays the activity of compounds of the invention, human recombinant serotonin (5-Hydroxytryptamine) 5-HT6 receptor expressed in human HeLa cells (Monsma, F. Jr. et al, Mol. Pharmacol. 43:320, 1993) in a modified Tris-HCl buffer (50 mM Tris-HCl, pH 7.4, 150 mM NaCl, 2 mM Ascorbic Acid, 0.001% BSA) was used. Compounds of the invention were incubated with 1.5 nM [3H]Lysergic acid diethylamide (LSD) for 120 min. at 37° C. Non-specific binding was estimated in the presence of 5 μM Serotonin (5-HT). Receptor proteins were filtered and washed, the filters were then counted to determine [3H]LSD specifically bound. Compounds were screened at 1 μM or lower, using 1% DMSO as vehicle. Biochemical assay results are presented as the percent inhibition of specific binding in Table 4.
# [5] = target: T5, human recombinant serotonin (5-Hydroxytryptamine) 5-HT2A receptor (Homo sapiens, UniProt P28223); experiment: Serotonin 5-HT2A radioligand binding ([3H]Ketanserin); details: for inhibition at 1 µM: compound at 1 μM, read-out: Serotonin (1 μM) 5-HT2A, percentage inhibition of ligand binding
# T5 construct: expressed in transfected cells; host or cells: CHO-K1
# T5 sequence (P28223 whole entry): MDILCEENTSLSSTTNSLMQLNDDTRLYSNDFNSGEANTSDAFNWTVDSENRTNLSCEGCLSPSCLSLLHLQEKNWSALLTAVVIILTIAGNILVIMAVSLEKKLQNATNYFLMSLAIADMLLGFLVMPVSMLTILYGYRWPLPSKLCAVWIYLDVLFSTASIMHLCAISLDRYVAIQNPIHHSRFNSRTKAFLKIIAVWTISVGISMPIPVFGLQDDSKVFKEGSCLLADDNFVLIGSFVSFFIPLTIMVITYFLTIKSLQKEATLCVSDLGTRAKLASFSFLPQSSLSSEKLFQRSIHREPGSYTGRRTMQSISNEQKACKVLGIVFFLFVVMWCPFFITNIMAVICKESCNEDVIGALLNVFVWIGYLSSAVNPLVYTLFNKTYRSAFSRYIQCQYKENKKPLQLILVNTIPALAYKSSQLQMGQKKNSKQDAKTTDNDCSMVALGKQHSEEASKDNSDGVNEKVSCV
# Procedure: To evaluate in radioligand binding assays the activity of compounds of the invention, human recombinant serotonin (5-Hydroxytryptamine) 5-HT2A receptor expressed in Chinese hamster ovary (CHO)-K1 cells (Bonhaus, D. et al, Br. J. Pharmacol. 115:622, 1995; Saucier, C. et al, J. Neurochem. 68:1998, 1997) in a 50 mM Tris-HCl buffer, pH 7.4, was used. Compounds of the invention were incubated with 0.5 nM [^3H]Ketanserin for 60 min. at 25° C. Non-specific binding was estimated in the presence of 1 μM Mianserin. Receptor proteins were filtered and washed, the filters were then counted to determine [^3H]Ketanserin specifically bound. Compounds were screened at 1 μM or lower, using 1% DMSO as vehicle. Biochemical assay results are presented as the percent inhibition of specific binding in Table 4.
# [6] = target: T6, human recombinant histamine H1 receptor (Homo sapiens, UniProt P35367); experiment: Histamine H1 radioligand binding ([3H]Pyrilamine); details: compound at 1 μM; 1.2 nM [3H]Pyrilamine; read-out: Histamine Binding (1 μM) H1, percentage inhibition
# T6 construct: expressed in transfected cells; host or cells: CHO-K1
# T6 sequence (P35367 whole entry): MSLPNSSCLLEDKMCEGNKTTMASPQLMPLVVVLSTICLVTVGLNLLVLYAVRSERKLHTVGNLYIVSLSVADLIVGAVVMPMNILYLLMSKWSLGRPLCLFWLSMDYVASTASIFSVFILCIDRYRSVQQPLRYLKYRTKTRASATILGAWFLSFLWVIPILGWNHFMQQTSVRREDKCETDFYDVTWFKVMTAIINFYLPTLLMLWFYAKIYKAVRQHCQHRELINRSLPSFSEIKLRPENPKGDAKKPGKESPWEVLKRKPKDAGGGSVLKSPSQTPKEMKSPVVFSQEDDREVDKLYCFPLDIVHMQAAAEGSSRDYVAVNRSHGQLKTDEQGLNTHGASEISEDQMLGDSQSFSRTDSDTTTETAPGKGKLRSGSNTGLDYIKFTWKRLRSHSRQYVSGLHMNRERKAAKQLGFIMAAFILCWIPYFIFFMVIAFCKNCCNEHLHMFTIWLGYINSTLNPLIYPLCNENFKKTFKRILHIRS
# Procedure: To evaluate in radioligand binding assays the activity of compounds of the invention, human recombinant histamine H1 receptor expressed in Chinese hamster ovary (CHO) K1 cells (De Backer, M. et al, Biochem. Biophys. Res. Comm. 197(3):1601, 1993) in a modified Tris-HCl buffer (50 mM Tris-HCl, pH 7.4, 2 mM MgCl2, 100 mM NaCl, 250 mM Sucrose) was used. Compounds of the invention were incubated with 1.2 nM [^3H]Pyrilamine for 180 min. at 25° C. Non-specific binding was estimated in the presence of 1 μM Pyrilamine. Receptor proteins were filtered and washed, the filters were then counted to determine [^3H]Pyrilamine specifically bound. Compounds were screened at 1 μM or lower, using 1% DMSO as vehicle. Biochemical assay results are presented as the percent inhibition of specific binding in Table 2.
# [7] = target: T7, human recombinant serotonin (5-Hydroxytryptamine) 5-HT7 receptor (Homo sapiens, UniProt P34969); experiment: Serotonin 5-HT7 radioligand binding ([3H]LSD); details: for inhibition at 1 µM: compound at 1 μM, read-out: Serotonin (1 μM) 5-HT7, percentage inhibition of ligand binding
# T7 construct: expressed in transfected cells; host or cells: CHO
# T7 sequence (P34969 whole entry): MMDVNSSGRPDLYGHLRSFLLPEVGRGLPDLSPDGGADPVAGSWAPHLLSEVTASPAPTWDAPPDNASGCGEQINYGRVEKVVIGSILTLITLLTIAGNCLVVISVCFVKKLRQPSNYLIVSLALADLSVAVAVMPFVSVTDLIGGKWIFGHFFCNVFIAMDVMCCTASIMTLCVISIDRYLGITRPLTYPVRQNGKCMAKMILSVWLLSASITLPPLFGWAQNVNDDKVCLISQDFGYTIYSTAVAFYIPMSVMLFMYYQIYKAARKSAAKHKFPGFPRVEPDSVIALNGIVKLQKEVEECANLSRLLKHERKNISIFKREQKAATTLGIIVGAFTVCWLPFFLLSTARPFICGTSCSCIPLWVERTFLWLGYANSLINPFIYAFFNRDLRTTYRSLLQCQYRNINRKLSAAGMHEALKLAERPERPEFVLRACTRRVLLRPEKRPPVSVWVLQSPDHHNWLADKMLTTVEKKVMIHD
# Procedure: To evaluate in radioligand binding assays the activity of compounds of the invention, human recombinant serotonin (5-Hydroxytryptamine) 5-HT7 receptor expressed in Chinese hamster ovary (CHO) cells (Roth, B. et al, J. Pharmacol. Exp. Ther. 268:1403, 1994; Shen, Y. et al, J. Biol. Chem. 268:18200, 1993) in a modified Tris-HCl buffer (50 mM Tris-HCl, pH 7.4, 10 mM MgCl2, 0.5 mM EDTA) was used. Compounds of invention were incubated with 5.5 nM [^3H]Lysergic acid diethylamide (LSD) for 120 min. at 25° C. Non-specific binding was estimated in the presence of 10 μM Serotonin (5-HT). Receptor proteins were filtered and washed, the filters were then counted to determine [^3H]LSD specifically bound. Compounds were screened at 1 μM or lower, using 1% DMSO as vehicle. Biochemical assay results are presented as the percent inhibition of specific binding in Table 4.
# [8] = Stability of product in acidic medium (note in preparation); type: physicochemical
Structure (SMILES),inhibition at 1 µM [1] [%],inhibition at 1 µM [2] [%],inhibition at 1 µM [3] [%],inhibition at 1 µM [4] [%],inhibition at 1 µM [5] [%],inhibition at 1 µM [6] [%],inhibition at 1 µM [7] [%],"inhibition at 0.1 µM ([7]; compound at 0.1 μM, read-out: Serotonin (0.1 μM) 5-HT7, percentage inhibition of ligand binding) [%]","inhibition at 0.1 µM ([3]; compound at 0.1 μM, read-out: Serotonin (0.1 μM) 5-HT2C, percentage inhibition of ligand binding) [%]","inhibition at 0.1 µM ([4]; compound at 0.1 μM, read-out: Serotonin (0.1 μM) 5-HT6, percentage inhibition of ligand binding) [%]","inhibition at 0.1 µM ([5]; compound at 0.1 μM, read-out: Serotonin (0.1 μM) 5-HT2A, percentage inhibition of ligand binding) [%]",stability in acidic medium [8]
Cc1cc2c3c(c1)c1c(n3CC(c3ccc(C)nc3)C2)CCN(C)C1 (stereo not drawn) [Compound 1],-1,42,19,24,20,44,–,–,–,–,–,–
Cc1cc2c3c(c1)c1c(n3CC2c2ccc(F)cc2)CCN(C)C1 (stereo not drawn) [Compound 2],17,48,92,57,87,66,89,–,–,–,–,–
"Cc1cc2c3c(c1)c1c(n3CCO2)CCN(C)C1 [Compound 4, 5,8-dimethyl-1,2,7,8,9,10-hexahydro-[1,4]oxazino[2,3,4-hi]pyrido[4,3-b]indole]",6,10,79,25,56,53,46,–,–,–,–,–
Cc1cc2c3c(c1)c1c(n3CC(c3ccc(F)cc3)=C2)CCN(C)C1 [Compound 158],99,–,–,–,–,27,–,36,55,82,81,unstable in acidic medium
